According to patent US7371720B2, “Cationic peptides of the phylloseptin family isolated from the skin secretion of Phyllomedusa hypochondrialis” (Empressa Brasileira de Pesquisa Agropecuaria - Embrapa, priority 2001, dated 2008):
Peptide text beside a SMILES is read from it.

Legend:
Format in all cases: cell-based
human red blood cells = assay: Hemolysis assay
Method: Human erythrocytes (blood type O^−) from a healthy person were freshly prepared prior to each experiment. Hemolytic activity was assayed as described by Aboudy etal (Aboudy, Y., Mendelson, E., Shalit, I., Bessalle, R., Fridikin, M. 1994. Int. J. Peptide Protein Res. 43, 573-582.) with minor modifications. Three milliliters of freshly prepared erythrocytes (for methodology see Gibson, B. W., Tang, D., Mandrell, R., Kelly, M. and Spindel, E. R. 1991. J. Biol. Chem. 266, 23103-23111.21) was washed with isotonic phosphate-buffered saline (PBS), pH 7.4, until the color of the supernatant turned clear. The washed erythrocytes were then diluted to a final volume of 20 ml in the same buffer. Aliquots of cell suspentions (190 μl) containing samples (10 μl) were serially diluted in PBS, incubated at 37° C. for 30 min and then centrifuged at 4000×g for 5 min; 100 μl of supernatant was taken, diluted to 1.0 ml with PBS, and monitored at 567 nm. The relative optical density, as compared with that of the cell suspension treated with 0.2% Triton X-100, was defined as % hemolysis.
The hemolytic activity of Phylloseptin I and II was tested at different concentrations.

[1] = test system: Escherichia coli ATTC 25922; details: 20 h, 37° C., TSB, 100% growth inhibition
Method: (§1) The microorganisms Escherichia coli ATTC 25922, Pseudomonas aeroginosa ATTC 27853, Staphylococcus aureus ATTC 25923 and Enterococcus faecalis ATTC 29212 and a Brazilian strain of P. aeroginosa were used for the anti-microbial assay
(§2) The microorganisms were cultured in stationary culture at 37° C. Bacteria were grown in Tryptic Soy Broth (TSB). The bioassays were performed by liquid growth inhibition assay lawn as described by Bulet et al (Bulet, P., Dimarcq, J. L., Hetru, C., Lagueux, M., Charlet, M., Hegy, G., VanDorsselaer, A. and Hoffmann, J. A. 1993. J. Biol. Chem. 268, 14893-14897). Molecules of Phylloseptin I were dissolved in sterile distilled and deionized water and diluted 8-fold in TSB (OXIOD England) broth. Various concentrations of PSI solution were tested, being the highest 128 μg/ml. The initial inoculum was approximately 1×10^5 colony forming units (CFU)/ml and limit of detection was 10^2 CFU/ml. The final volume was 250 μl (25 μl of the peptide test in water, 25 μl of the inoculum in TSB, and 200 μl of TSB broth). The minimal inhibitory concentration (MIC) was measured for turbidity (OD at 595 nm) 20 h after all microorganisms were grown in stationary culture at 37° C. The lowest concentration of the peptide in which no growth occurred was defined as the MIC.
(§3) The minimal inhibitory concentrations (MICs) of the isolated Phylloseptin I against several Gram-positive and Gram-negative bacteria were determined as described by Park et al (Park, C. B., Kim, M. S., and Kim, S. C. 1996. 218 Biochem. Biophys. Res. Commun. 408-413.). […] That is, the minimal inhibitory concentration was defined as the peptide concentration which produces 100% of microorganism growth inhibition after 20 h incubation in culture media.

[2] = test system: Pseudomonas aeroginosa ATTC 27853; details: Pseudomonas aeruginosa ATTC; 20 h, 37° C., TSB; 100% growth inhibition
Method: as §1, §2, §3

[3] = test system: Pseudomonas aeruginosa wt; details: Pseudomonas aeruginosa wt (Brazilian strain); 20 h, 37° C., TSB; 100% growth inhibition
Method: as §1, §2, §3

[4] = test system: Enterococcus faecalis ATTC 29212; details: 20 h, 37° C., TSB, 100% growth inhibition
Method: as §1, §2, §3

[5] = test system: Staphylococcus aureus ATTC 25923; details: Staphilococcus aureus ATTC; 20 h, 37° C., TSB; 100% growth inhibition
Method: as §1, §2, §3

Compound | Minimal Inhibitory concentration [1] [µg/mL] | Minimal Inhibitory concentration [2] [µg/mL] | Minimal Inhibitory concentration [3] [µg/mL] | Minimal Inhibitory concentration [4] [µg/mL] | Minimal Inhibitory concentration [5] [µg/mL] | further results
CC[C@H](C)[C@H](NC(=O)[C@H](C)NC(=O)[C@H](Cc1c[nH]cn1)NC(=O)[C@@H]1CCCN1C(=O)[C@@H](NC(=O)[C@H](CC(C)C)NC(=O)[C@H](CO)NC(=O)[C@H](CC(C)C)NC(=O)[C@@H](N)Cc1ccccc1)[C@@H](C)CC)C(=O)N[C@@H](CC(N)=O)C(=O)N[C@@H](C)C(=O)N[C@H](C(=O)N[C@@H](CO)C(=O)N[C@H](C(=O)N[C@@H](CC(C)C)C(=O)N[C@H](C(=O)N[C@@H](Cc1c[nH]cn1)C(=O)N[C@@H](Cc1c[nH]cn1)C(=O)N[C@@H](Cc1ccccc1)C(=O)O)C(C)C)[C@@H](C)O)C(C)C [PS II, Phe Leu Ser Leu Ile Pro His Ala Ile Asn Ala Val Ser Thr Leu Val His His Phe] (H-FLSLIPHAINAVSTLVHHF-OH) | – | – | – | – | – | % Hemolysis of human red blood cells (human red blood cells; red cells of human, 1 μg/mL): 0.00%; % Hemolysis of human red blood cells (human red blood cells; red cells of human, 2 μg/mL): 0.00%; % Hemolysis of human red blood cells (human red blood cells; red cells of human, 4 μg/mL): 0.10%; % Hemolysis of human red blood cells (human red blood cells; red cells of human, 8 μg/mL): 0.28%; % Hemolysis of human red blood cells (human red blood cells; red cells of human, 16 μg/mL): 0.70%; % Hemolysis of human red blood cells (human red blood cells; red cells of human, 32 μg/mL): 0.80%; % Hemolysis of human red blood cells (human red blood cells; red cells of human, 64 μg/mL): 1.05%; % Hemolysis of human red blood cells (human red blood cells; red cells of human, 128 μg/mL): 2.05%
Gentamicyn | 64 | 64 | 64 | – | – | –
CC1(C)S[C@@H]2[C@H](NC(=O)[C@H](N)c3ccccc3)C(=O)N2[C@H]1C(=O)O [Amplicilyn] | 64 | – | – | 128 | – | –
CC[C@H](C)[C@H](NC(=O)[C@H](C)NC(=O)[C@H](CO)NC(=O)[C@@H](NC(=O)[C@H](C)NC(=O)[C@H](CC(N)=O)NC(=O)[C@@H](NC(=O)[C@H](C)NC(=O)[C@H](Cc1c[nH]cn1)NC(=O)[C@@H]1CCCN1C(=O)[C@@H](NC(=O)[C@H](CC(C)C)NC(=O)[C@H](CO)NC(=O)[C@H](CC(C)C)NC(=O)[C@@H](N)Cc1ccccc1)[C@@H](C)CC)[C@@H](C)CC)C(C)C)C(=O)N[C@@H](C)C(=O)N[C@@H](CCCCN)C(=O)N[C@@H](Cc1c[nH]cn1)C(=O)N[C@@H](CC(N)=O)C(=O)O [PS I, Phe Leu Ser Leu Ile Pro His Ala Ile Asn Ala Val Ser Ala Ile Ala Lys His Asn] (H-FLSLIPHAINAVSAIAKHN-OH) | 16 | 8 | 6 | 8 | 16 | % Hemolysis of human red blood cells (human red blood cells; 1 μg/mL (0.496 μM), 37° C., 30 min, relative to 0.2% Triton X-100): 0.00%; % Hemolysis of human red blood cells (human red blood cells; 2 μg/mL (0.990 μM), 37° C., 30 min, relative to 0.2% Triton X-100): 0.00%; % Hemolysis of human red blood cells (human red blood cells; 4 μg/mL (1.980 μM), 37° C., 30 min, relative to 0.2% Triton X-100): 0.00%; % Hemolysis of human red blood cells (human red blood cells; 8 μg/mL (3.968 μM), 37° C., 30 min, relative to 0.2% Triton X-100): 0.30%; % Hemolysis of human red blood cells (human red blood cells; 16 μg/mL (7.937 μM), 37° C., 30 min, relative to 0.2% Triton X-100): 0.57%; % Hemolysis of human red blood cells (human red blood cells; 32 μg/mL (15.873 μM), 37° C., 30 min, relative to 0.2% Triton X-100): 0.60%; % Hemolysis of human red blood cells (human red blood cells; 64 μg/mL (31.746 μM), 37° C., 30 min, relative to 0.2% Triton X-100): 0.98%; % Hemolysis of human red blood cells (human red blood cells; 128 μg/mL (63.492 μM), 37° C., 30 min, relative to 0.2% Triton X-100): 1.98%
Polimixyn B | 64 | 16 | 16 | – | – | –
O=C(N[C@H](CO)[C@H](O)c1ccc([N+](=O)[O-])cc1)C(Cl)Cl [Chloranfenicol] | 32 | – | – | 32 | 32 | –
